The results in this text go back to patent publication US7635711B2, “Glucocorticoid mimetics, methods of making them, pharmaceutical compositions, and uses thereof” (Boehringer-Ingelheim Pharmaceuticals, Inc., priority 2004, dated 2009).

Molecules are shown by their SMILES.

System in one data set: not given
Assay: not given
Conditions: not given
On to `O=S(=O)(NC(Cc1c[nH]c2ccccc12)C(F)(F)F)c1ccccc1` (stereo not shown), for which the melting point is 121 to 123 °C.

For a further data set, the system named is glucocorticoid receptor. As to the kind of experiment: one or more of the above assays (GR binding and GR cell assays for agonist/antagonist activity). The format is cell-based. As to conditions: in one or more of the above assays. The source says:
Compounds found to bind to the glucocorticoid receptor may be evaluated for dissociation of transactivation and transrepression by assays cited in the Background of the Invention (C. M. Bamberger and H. M. Schulte, Eur. J. Clin. Invest., 2000, 30 (suppl. 3) 6-9) or by the assays described below.
B. Glucocorticoid Receptor Cell Assays
1. Induction of Aromatase in Fibroblasts (Cell Assay for Transactivation)
Dexamethasone, a synthetic ligand to the glucocorticoid receptor (GR), induces expression of aromatase in human foreskin fibroblast cells. The activity of aromatase is measured by the conversion of testosterone to estradiol in culture media.
Human foreskin fibroblast cells (ATCC Cat. No. CRL-2429, designation CCD112SK) are plated on 96 well plates at 50,000 cells per well 5 days before use, in Iscove's Modified Dulbecco's Media (GibcoBRL Life Technologies Cat No. 12440-053) supplemented with 10% charcoal filtered FBS (Clonetech Cat No. SH30068) and Gentamycin (GibcoBRL Life Technologies Cat. No. 15710-064). On the day of the experiment, the media in the wells is replaced with fresh media. Cells are treated with test compounds to final concentrations of 10^−5 M to 10^−8 M, and testosterone to a final concentration of 300 ng/mL. Each well has a total volume of 100 μL. Samples are made in duplicates. Control wells include: (a) wells that receive testosterone only, and (b) wells that receive testosterone plus 2 μM of dexamethasone to provide maximum induction of aromatase. Plates are incubated at 37° C. overnight (15 to 18 hours), and supernatants are harvested at the end of incubation. Estradiol in the supernatant is measured using ELISA kits for estradiol (made by ALPCO, obtained from American Laboratory Products Cat. No. 020-DR-2693) according to the manufacture's instruction. The amount of estradiol is inversely proportional to the ELISA signals in each well. The extent of aromatase induction by test compounds is expressed as a relative percentage to dexamethasone. EC50 values of test compounds are derived by non-linear curve fitting.
2. Inhibition of IL-6 Production in Fibroblasts (Cell Assay for Transrepression)
Human foreskin fibroblast cells produce IL-6 in response to stimulation by pro-inflammatory cytokine IL-1.
Human foreskin fibroblast cells (ATCC Cat. No. CRL-2429) are plated on 96 well plates at 5,000 cells per well the day before use, in Iscove's Modified Dulbecco's Media (GibcoBRL Life Technologies Cat. No. 12440-053) supplemented with 10% charcoal filtered FBS (Clonetech Cat. No. SH30068) and Gentamycin (GibcoBRL Life Technologies Cat. No. 15710-064). On the next day, media in the wells is replaced with fresh media. Cells are treated with IL-1 (rhIL-1α, R&D Systems Cat. No. 200-LA) to a final concentration of 1 ng/mL, and with test compounds to final concentrations of 10^−5 M to 10^−8 M, in a total volume of 200 μL per well. Samples are done in duplicates. […] Positive control wells receive IL-1 only and represent maximum (or 100%) amount of IL-6 production. Plates are incubated at 37° C. overnight (15 to 18 hours), and supernatants are harvested at the end of incubation. IL-6 levels in the supernatants are determined by the ELISA kits for IL-6 (MedSystems Diagnostics GmbH, Vienna, Austria, Cat. No. BMS213TEN) according to manufacture's instructions. The extent of inhibition of IL-6 by test compounds is expressed in percentage relative to positive controls. IC50 values of test compounds are derived by non-linear curve fitting.
Evaluation of agonist or antagonist activity of compounds binding to the glucocorticoid receptor may be determined by any of the assays.
3. Modulation of Tyrosine Aminotransferase (TAT) Induction in Rat Hepatoma Cells
Testing of compounds for agonist or antagonist activity in induction of tyrosine aminotransferase (TAT) in rat hepatoma cells. […]
As for `Cc1cc(C)c(S(=O)(=O)NC(Cc2c[nH]c3ccccc23)C(F)(F)F)c(C)c1` (stereo not shown) [2,4,6-Trimethyl-N-[2,2,2-trifluoro-1-(1H-indol-3-ylmethyl)ethyl]benzenesulfonamide], the “activity as an agonist of the glucocorticoid receptor function” value (from here on “activity”) was “activity as an agonist”.

Regarding `Cc1cc(C)c(S(=O)(=O)NC(Cn2cc(C)c3ccccc32)C(F)(F)F)c(C)c1` (stereo not shown) [2,4,6-Trimethyl-N-[2,2,2-trifluoro-1-(3-methylindol-1-ylmethyl)ethyl]benzenesulfonamide], the “activity” value is “activity as an agonist”.

`Cc1cc(C)c(S(=O)(=O)NC(Cc2c[nH]c3cccc(F)c23)C(F)(F)F)c(C)c1` (stereo not shown) [2,4,6-Trimethyl-N-[2,2,2-trifluoro-1-(4-fluoro-1H-indol-3-ylmethyl)ethyl]benzenesulfonamide]: the “activity” value is “activity as an agonist”.

For `Cc1cc(C)c(S(=O)(=O)NC(Cc2c[nH]c3ccc(F)cc23)C(F)(F)F)c(C)c1` (stereo not shown) [2,4,6-Trimethyl-N-[2,2,2-trifluoro-1-(5-fluoro-1H-indol-3-ylmethyl)ethyl]benzenesulfonamide], the “activity” value was “activity as an agonist”.

In the case of `Cc1cc(C)c(S(=O)(=O)NC(Cc2c[nH]c3ccc(C)cc23)C(F)(F)F)c(C)c1` (stereo not shown) [2,4,6-Trimethyl-N-[2,2,2-trifluoro-1-(5-methyl-1H-indol-3-ylmethyl)ethyl]benzenesulfonamide], the “activity” value is given as “activity as an agonist”.

As for `Cc1cc(C)c(S(=O)(=O)NC(Cc2c[nH]c3cc(F)ccc23)C(F)(F)F)c(C)c1` (stereo not shown) [2,4,6-Trimethyl-N-[2,2,2-trifluoro-1-(6-fluoro-1H-indol-3-ylmethyl)ethyl]benzenesulfonamide], the “activity” value is “activity as an agonist”.

On to `Cc1cc(C)c(S(=O)(=O)NC(Cc2c[nH]c3c(F)cccc23)C(F)(F)F)c(C)c1` (stereo not shown) [2,4,6-Trimethyl-N-[2,2,2-trifluoro-1-(7-fluoro-1H-indol-3-ylmethyl)ethyl]benzenesulfonamide], for which the “activity” value is listed as “activity as an agonist”.

In the case of `Nc1cc(Cl)cc(Cl)c1S(=O)(=O)NC(Cc1c[nH]c2ccccc12)C(F)(F)F` (stereo not shown) [2-Amino-4,6-dichloro-N-[2,2,2-trifluoro-1-(1H-indol-3-ylmethyl)ethyl]benzenesulfonamide], the “activity” value is recorded as “activity as an agonist”.

Turning to `Cc1ccc2[nH]cc(CC(NS(=O)(=O)c3c(N)cc(Cl)cc3Cl)C(F)(F)F)c2c1` (stereo not shown) [2-Amino-4,6-dichloro-N-[2,2,2-trifluoro-1-(5-methyl-1H-indol-3-ylmethyl)ethyl]benzenesulfonamide], the “activity” value was “activity as an agonist”.

Consider `Cc1cc(C)c(S(=O)(=O)NC(Cc2c[nH]c3ccccc23)C(F)(F)F)c(N)c1` (stereo not shown) [2-Amino-4,6-dimethyl-N-[2,2,2-trifluoro-1-(1H-indol-3-ylmethyl)ethyl]benzenesulfonamide], for which the “activity” value is listed as “activity as an agonist”.

For `Cc1cc(C)c(S(=O)(=O)NC(Cc2c[nH]c3c(C#N)cccc23)C(F)(F)F)c(C)c1` (stereo not shown) [N-[1-(7-Cyano-1H-indol-3-ylmethyl)-2,2,2-trifluoroethyl]-2,4,6-trimethylbenzenesulfonamide], the “activity” value is “activity as an agonist”.

As to `Cc1cc(C)c(S(=O)(=O)NC(Cc2c[nH]c3c(C#N)cc(C)cc23)C(F)(F)F)c(C)c1` (stereo not shown) [N-[1-(7-Cyano-5-methyl-1H-indol-3-ylmethyl)-2,2,2-trifluoroethyl]-2,4,6-trimethylbenzenesulfonamide], the “activity” value was “activity as an agonist”.

Broadly, the melting point is the temperature, or range, at which the solid turns liquid.
